How the values were obtained:
[1] = target: T1, proteins captured on kinobeads from Jurkat cell lysate (Homo sapiens, UniProt Q2M2I8); assay: In-lysate competition binding with kinobeads, Jurkat lysate, iTRAQ MS, relative intensity of identified proteins (Table 22); conditions: DMSO control = 1.0
T1 construct: endogenous in cells; host or cells: Jurkat clone E6-1 lysate
Procedure: (§1) This example illustrates competition binding in cell lysates (see particularly the third aspect of the invention). A test compound, Bisindolylmaleimide VIII (Bis VIII, a well known kinase inhibitor; Davies et al., 2000. Specificity and mechanism of action of some commonly used protein kinase inhibitors. Biochemical Journal 351 (Pt 1): 95-105) was added to a cell lysate thereby allowing the test compound to bind to the target proteins in the lysate. Then the lysate was contacted with the kinobeads affinity matrix to capture remaining free target proteins. The proteins bound to the kinobeads matrix were then eluted with detergent-containing buffer, separated on a SDS-polyacryamide gel and analyzed by immunodetection (Western blots) or mass spectrometry detection.
(§2) For the quantitative detection of proteins by mass spectrometry proteins were eluted from the affinity matrix and subsequently separated by SDS-Polyacrylamide gel elecrophoresis. Suitable gel areas were cut out and subjected to in-gel proteolytic digestion with trypsin.
(§3) Four tryptic digest samples (corresponding to three different Bis VIII concentrations in the lysate and one DMSO control) were labeled with ITRAQ reagents and the combined samples were analyzed in a single LC-MS/MS mass spectrometry analysis followed by peak quantification in the MS/MS spectrum (Ross et al., 2004. Multiplexed protein quantitation in Saccharomyces cerevisiae using amine-reactive isobaric tagging reagents. Mol. Cell. Proteomics 3(12): 1154-1169). […] Binding curves for individual kinases are shown (FIG. 5). The relative intensity 50 (RI50) values representing the affinity of kinase-compound pairs are similar to IC50 values reported by kinase enzyme assays (Davies et al., 2000. Specificity and mechanism of action of some commonly used protein kinase inhibitors. Biochemical Journal 351 (Pt 1): 95-105).
(§4) Aliqots of Jurkat lysate (10 mg protein) were incubated with different Bis VIII concentrations for one hour at 4° C. (0.025 μM, 0.074 μM, 0.22 μM, 0.67 μM, 2.0 μM and 6.0 μM final concentration of Bis VIII). To this end Bis VIII solutions were prepared in 100% DMSO as solvent that corresponded to 200 fold desired final Bis VIII concentration (Bis VIII from Alexis Biochemicals cat. number ALX 270-056). Five μl of these solutions were added to 1 ml of lysate resulting in the indicated final concentrations. For a control experiment 5 μl of DMSO without Bis VIII were used.
(§5) To each preincubated lysate sample 40 μl of kinobeads (see example 1) were added and incubated for one hour at 4° C. During the incubation the tubes were rotated on an end-over-end shaker (Roto Shake Genie, Scientific Industries Inc.). Beads were collected by centrifugation, transfered to Mobicol-columns (MoBiTech 10055) and washed with 10 ml 1×DP buffer containing 0.4% NP40 detergent, followed by a wash with 5 ml 1×DP buffer with 0.2% NP40. To elute the bound proteins, 100 μl 2×SDS sample buffer was added, the column was heated for 30 minutes at 50° C. and the eluate was transferred to a microfuge tube by centrifugation. Proteins were then separated by SDS-Polyacrylamide electrophoresis (SDS-PAGE). The composition and preparation of buffers is described in example 2.
(§6) The peptide extracts of samples treated with different concentrations of the test compound (0.074 μM, 0.22 μM and 0.67 μM Bis VIII) and the solvent control (0.5% DMSO) were treated with different isomers of the isobaric tagging reagent (iTRAQ Reagents Multiplex Kit, part number 4352135, Applied Biosystems, Foster City, Calif., USA). The iTRAQ reagents are a set of multiplexed, amine-specific, stable isotope reagents that can label all peptides in up to four different biological samples enabling simultaneous identification and quantitation of peptides. The iTRAQ reagents were used according to instructions provided by the manufacturer. […]

[2] = target: T2, proteins captured on kinobeads from Jurkat cell lysate (Homo sapiens, UniProt Q13131); assay: as above; conditions: DMSO control = 1.0
T2 construct: endogenous in cells; host or cells: Jurkat clone E6-1 lysate
T2 sequence (Q13131 whole entry): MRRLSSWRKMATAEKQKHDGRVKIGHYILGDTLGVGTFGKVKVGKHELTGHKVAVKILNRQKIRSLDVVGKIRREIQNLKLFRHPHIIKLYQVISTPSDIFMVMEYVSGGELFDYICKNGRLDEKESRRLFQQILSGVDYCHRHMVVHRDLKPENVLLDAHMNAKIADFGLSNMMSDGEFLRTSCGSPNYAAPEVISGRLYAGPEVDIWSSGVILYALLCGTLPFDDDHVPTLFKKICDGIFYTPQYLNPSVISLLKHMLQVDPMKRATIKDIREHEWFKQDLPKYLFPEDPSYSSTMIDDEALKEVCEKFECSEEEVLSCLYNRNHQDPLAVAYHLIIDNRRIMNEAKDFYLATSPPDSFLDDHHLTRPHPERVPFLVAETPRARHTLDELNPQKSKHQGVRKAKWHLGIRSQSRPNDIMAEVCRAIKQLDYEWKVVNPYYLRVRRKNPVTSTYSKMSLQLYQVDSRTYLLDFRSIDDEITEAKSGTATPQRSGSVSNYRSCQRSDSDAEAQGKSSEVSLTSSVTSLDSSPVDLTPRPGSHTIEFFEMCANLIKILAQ
Procedure: as §1, §2, §3, §4, §5, §6

[3] = system: proteins captured on kinobeads from Jurkat cell lysate; assay: as above; parameters: species or system human; conditions: DMSO control = 1.0
Procedure: as §1, §2, §3, §4, §5, §6

[4] = target: T3, proteins captured on kinobeads from Jurkat cell lysate (Homo sapiens, UniProt P24941); assay: as above; conditions: DMSO control = 1.0
T3 construct: endogenous in cells; host or cells: Jurkat clone E6-1 lysate
Procedure: as §1, §2, §3, §4, §5, §6

[5] = target: T4, Glycogen Synthase Kinase 3 alpha (Homo sapiens, UniProt P49840); assay: In-lysate competition binding with kinobeads, Jurkat lysate, iTRAQ MS; conditions: for Relative Intensity, GSK3A: DMSO control = 1.0
T4 construct: endogenous in cells; host or cells: Jurkat clone E6-1 lysate
T4 sequence (P49840 whole entry): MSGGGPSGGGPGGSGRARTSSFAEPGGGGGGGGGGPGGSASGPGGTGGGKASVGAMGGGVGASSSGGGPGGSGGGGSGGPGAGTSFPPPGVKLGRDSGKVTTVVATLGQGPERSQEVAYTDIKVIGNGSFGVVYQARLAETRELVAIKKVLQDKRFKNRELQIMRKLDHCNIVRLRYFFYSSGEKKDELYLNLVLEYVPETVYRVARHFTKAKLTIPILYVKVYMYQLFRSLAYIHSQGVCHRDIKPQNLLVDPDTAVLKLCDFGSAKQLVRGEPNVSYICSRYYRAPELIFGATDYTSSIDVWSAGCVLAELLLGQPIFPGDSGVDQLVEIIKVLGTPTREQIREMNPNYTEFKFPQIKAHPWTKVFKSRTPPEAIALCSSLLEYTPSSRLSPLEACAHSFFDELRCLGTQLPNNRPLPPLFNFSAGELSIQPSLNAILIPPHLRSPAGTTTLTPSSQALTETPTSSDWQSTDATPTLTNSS
Procedure: as §1, §2, §3, §4, §5, §6

protein kinase C alpha = target: T5, protein kinase C alpha (Homo sapiens, UniProt P17252); assay: as above; conditions: for Relative Intensity, PKCa (PRKCA): DMSO control = 1.0
T5 construct: Aliqots of Jurkat lysate (10 mg protein) were incubated with different Bis VIII concentrations; endogenous in cells; host or cells: Jurkat clone E6-1 lysate
Procedure: as §1, §2, §3, §4, §5, §6

CDKL5 = CDKL5 (Mus musculus, UniProt Q3UTQ8); assay: Kinobeads elution with test compound, mouse brain lysate, MS; format: binding; conditions: kinase released from kinobeads by specific elution
CDKL5, sequence (Q3UTQ8 whole entry): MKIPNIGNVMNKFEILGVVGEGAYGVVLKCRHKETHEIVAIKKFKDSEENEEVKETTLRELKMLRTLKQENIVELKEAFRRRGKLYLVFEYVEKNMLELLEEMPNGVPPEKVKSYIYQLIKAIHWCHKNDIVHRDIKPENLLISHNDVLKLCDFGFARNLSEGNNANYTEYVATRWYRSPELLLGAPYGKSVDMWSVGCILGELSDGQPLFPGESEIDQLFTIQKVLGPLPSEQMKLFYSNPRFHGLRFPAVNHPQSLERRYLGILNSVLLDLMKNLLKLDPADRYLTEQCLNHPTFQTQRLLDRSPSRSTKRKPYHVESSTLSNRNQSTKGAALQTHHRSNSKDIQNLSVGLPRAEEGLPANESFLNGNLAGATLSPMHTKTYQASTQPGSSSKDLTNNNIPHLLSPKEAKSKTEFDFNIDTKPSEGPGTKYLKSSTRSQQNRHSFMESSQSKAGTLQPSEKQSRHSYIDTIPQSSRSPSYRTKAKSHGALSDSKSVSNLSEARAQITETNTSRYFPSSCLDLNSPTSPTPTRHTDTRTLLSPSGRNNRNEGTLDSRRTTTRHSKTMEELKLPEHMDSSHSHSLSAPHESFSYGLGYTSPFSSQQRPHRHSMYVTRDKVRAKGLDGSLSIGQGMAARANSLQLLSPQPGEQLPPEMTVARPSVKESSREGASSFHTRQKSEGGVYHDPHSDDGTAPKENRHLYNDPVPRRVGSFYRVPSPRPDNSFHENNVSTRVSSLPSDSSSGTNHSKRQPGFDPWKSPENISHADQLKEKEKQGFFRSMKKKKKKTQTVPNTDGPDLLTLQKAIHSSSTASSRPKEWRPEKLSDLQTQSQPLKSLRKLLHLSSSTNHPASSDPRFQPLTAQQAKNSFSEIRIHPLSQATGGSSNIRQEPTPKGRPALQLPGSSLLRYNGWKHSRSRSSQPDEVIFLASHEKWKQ
Text: This example illustrates competitive elution of proteins bound to kinobeads with non-modified test compounds (see particularly the fourth aspect of the invention). […] The kinobeads were contacted with mouse brain lysate under conditions that allow the binding of the proteins in the lysate to the ligands. The binding conditions were close to physiological by choosing suitable buffer conditions preserving the function of the proteins. After removing non-captured proteins through a gentle washing procedure the bound proteins were contacted with a test compound for protein elution. […] 1. […] Transfer 20 μl the 1:3 slurry into MoBiTech columns (equivalent to 5 μl of beads). 3. Place the column into an Eppendorf tube and centrifuge it for 15 seconds at 800 rpm at 4° C. Close columns with lower lid. 4. Add 10 μl elution buffer containing 1.0 mM of the test compound (concentration ranges of 0.1 to 1.0 mM are suitable). […] Close column with upper lid. 5. Incubate for 30 minutes at 4° C. in an Eppendorf incubator at 700 rpm. 6. Open column (first top, then bottom), put column back into siliconized tube ([…] Microcentrifuge Tubes, cat. no 11270, Sorenson BioScience, Inc.). To harvest the eluate centrifuge 2 minutes at 2.000 rpm in table top centrifuge at room temperature. The typical volume of the eluate is approximately 15 μl. 7. […]

T1 sequence (Q2M2I8 whole entry): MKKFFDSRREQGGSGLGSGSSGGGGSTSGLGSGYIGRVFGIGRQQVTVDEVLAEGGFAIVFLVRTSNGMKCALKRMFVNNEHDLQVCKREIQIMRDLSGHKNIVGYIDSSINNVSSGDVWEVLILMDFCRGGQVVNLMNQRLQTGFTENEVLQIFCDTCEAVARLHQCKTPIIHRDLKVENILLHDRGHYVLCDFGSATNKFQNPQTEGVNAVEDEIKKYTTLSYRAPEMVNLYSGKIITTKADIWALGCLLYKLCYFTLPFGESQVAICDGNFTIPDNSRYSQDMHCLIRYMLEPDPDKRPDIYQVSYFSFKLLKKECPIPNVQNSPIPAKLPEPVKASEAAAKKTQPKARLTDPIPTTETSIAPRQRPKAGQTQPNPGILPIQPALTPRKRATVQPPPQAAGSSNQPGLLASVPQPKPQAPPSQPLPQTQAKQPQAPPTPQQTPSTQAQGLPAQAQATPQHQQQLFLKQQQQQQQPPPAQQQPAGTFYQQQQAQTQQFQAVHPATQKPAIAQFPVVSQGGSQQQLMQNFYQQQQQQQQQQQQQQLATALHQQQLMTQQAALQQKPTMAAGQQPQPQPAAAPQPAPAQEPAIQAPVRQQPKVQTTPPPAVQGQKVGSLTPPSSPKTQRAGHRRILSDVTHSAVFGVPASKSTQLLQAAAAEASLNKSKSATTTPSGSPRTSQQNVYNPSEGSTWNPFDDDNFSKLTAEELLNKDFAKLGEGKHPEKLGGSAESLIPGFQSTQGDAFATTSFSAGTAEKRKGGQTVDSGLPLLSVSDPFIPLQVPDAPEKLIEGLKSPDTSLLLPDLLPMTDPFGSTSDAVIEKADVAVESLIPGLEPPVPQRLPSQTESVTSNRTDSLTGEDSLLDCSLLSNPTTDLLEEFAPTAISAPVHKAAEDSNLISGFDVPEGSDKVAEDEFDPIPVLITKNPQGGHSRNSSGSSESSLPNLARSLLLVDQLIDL

| Structure (SMILES) | Relative Intensity, AAK1 ([1]; 0.074 uM in lysate) | Relative Intensity, AAK1 ([1]; 0.67 uM in lysate) | Relative Intensity, AMPKa1 (PRKAA1) ([2]; 0.074 uM in lysate) | Relative Intensity, AMPKa1 (PRKAA1) ([2]; 0.67 uM in lysate) | Relative Intensity, Abl1 ([3]; 0.074 uM in lysate) | Relative Intensity, Abl1 ([3]; 0.67 uM in lysate) | Relative Intensity, CDK2 ([4]; 0.074 uM in lysate) | Relative Intensity, CDK2 ([4]; 0.67 uM in lysate) | Relative Intensity, GSK3A ([5]; 0.074 uM in lysate) | Relative Intensity, GSK3A ([5]; 0.67 uM in lysate) | IC50 ([5]; Jurkat cell lysate, concentration at which relative intensity of the MS signal is 50% of DMSO control, read-out: RI50 (GSKa)) [nM] | Relative Intensity, PKCa (PRKCA) (protein kinase C alpha; 0.074 uM in lysate) | Relative Intensity, PKCa (PRKCA) (protein kinase C alpha; 0.67 uM in lysate) | IC50 (protein kinase C alpha; Jurkat cell lysate, concentration at which relative intensity of the MS signal is 50% of DMSO control, read-out: RI50 (PKCa)) [nM] | mass spectrometry score, CDKL5 (CDKL5) | number of identified peptides, CDKL5 (CDKL5) |
| --- | --- | --- | --- | --- | --- | --- | --- | --- | --- | --- | --- | --- | --- | --- | --- | --- |
| Cn1cc(C2=C(c3cn(CCCN)c4ccccc34)C(=O)NC2=O)c2ccccc21 [Bis VIII, Bisindolylmaleimide VIII] | 0.82 | 0.75 | 0.88 | 0.91 | 0.81 | 1.03 | 0.89 | 0.65 | 0.50 | 0.20 | 72.7 | 0.25 | 0.18 | 12.2 | – | – |
| CC(C)[C@H](CO)Nc1nc(Nc2ccc(C(=O)O)c(Cl)c2)c2ncn(C(C)C)c2n1 [Purvalanol B, reference compound] | – | – | – | – | – | – | – | – | – | – | – | – | – | – | 48 | 1 |

Source: patent US20090238808A1, “Process for the identification of novel enzyme interacting compounds” (priority 2005, published 2009)
